The term EC50 denotes the concentration that produces a half-maximal response.

Test [1] concerns the target T1, human enzyme NAMPT (full length) (Homo sapiens, UniProt P43490).
T1 construct: human enzyme NAMPT (full length)
The test can be described thus: NMN fluorescence biochemical assay (stimulation of NMN synthesis by NAMPT). The settings on record: for EC50: concentration giving half-maximal activation, read-out: Enzymatic EC50; for Enzymatic Emax: fold change of maximal activation compared to DMSO. The essentials: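 Full-length human NAMPT (100 nM) was preincubated 15 min at 37 °C with compound in 50 mM Tris-HCl pH 7.5, 10 mM MgCl2, 2 mM DTT, then reacted 1 h at 37 °C with 50 μM NAM, 100 μM PRPP, 4 mM ATP (stated solution concentrations). NMN was derivatised with acetophenone/KOH then formic acid and read at Ex/Em 382/445 nm; EC50 and Emax (fold over DMSO) reported.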

Test [2] relates to endogenous NAMPT in U2OS cells. Briefly: Cellular NAD+ modulation assay (NAD/NADH-Glo, U2OS cells). The class given is cell-based. The settings on record: Homo sapiens; for maximal fold induction: read-out: Cellular Emax. As for the experimental part:
Certain compounds described herein were also assayed for their ability to stimulate the endogenous NAMPT in a native cellular environment in a cellular NAD^+ modulation assay. U2OS cells were grown in McCoy's 5A medium with 10% fetal bovine serum, in a humidified incubator with an atmosphere of 95% air and 5% CO2 at 37° C. The assays were initiated by plating 30 μL of U2OS cells in a culture medium with 10% fetal bovine serum, at a density of 3000 cells per well in a Corning® 384-well White/Clear Bottom Polystyrene Microplate. The plates were incubated in 37T incubators for a period of 16 hours. Test compounds with a series of concentrations in DMSO were added to the plates in a volume of 150 nL using Echo Liquid handlers. The plates are then incubated for 24 hours. The medium was removed from the wells, then 10 μL PBS was added to each well. To each well of cells in 10 μL of PBS, 10 μL of base solution with 1% DTAB was added. The plate was briefly mixed on a plate shaker to ensure homogeneity and cell lysis (5 mins). 10p L of 0.4N HCl was added per well. The plate was coved, and all samples were incubated for 15 minutes at 60° C. Then the plate was equilibrated for 10 minutes at room temperature. 10 μL of 0.5M Trizma® base was added to each well of acid-treated cells to neutralize the acid. Finally, 30 μL of NAD/NADH-Glo™ Detection Reagent was added. The plate was gently shaken to mix the samples. The plate was incubated for 40 minutes at room temperature. Luminescence was recorded using a luminometer. The potency measurements for the test compounds were quantified and represented as EC50 (concentration of a compound that gives half-maximal activation) and Emax (fold change of a compound's maximal activation compared to DMSO).

[3] abbreviates: NMN synthesis by purified human NAMPT (100 nM).
[4] abbreviates: 24 hours incubation with compound.
Where [5] appears, read: NMN fluorescence assay, purified human NAMPT 100 nM.
The mark [6] stands for this setting: 24 hours incubation, cellular NAD+.

Like-named read-outs stand apart in the source and are kept apart here.

T1 sequence (P43490 whole entry): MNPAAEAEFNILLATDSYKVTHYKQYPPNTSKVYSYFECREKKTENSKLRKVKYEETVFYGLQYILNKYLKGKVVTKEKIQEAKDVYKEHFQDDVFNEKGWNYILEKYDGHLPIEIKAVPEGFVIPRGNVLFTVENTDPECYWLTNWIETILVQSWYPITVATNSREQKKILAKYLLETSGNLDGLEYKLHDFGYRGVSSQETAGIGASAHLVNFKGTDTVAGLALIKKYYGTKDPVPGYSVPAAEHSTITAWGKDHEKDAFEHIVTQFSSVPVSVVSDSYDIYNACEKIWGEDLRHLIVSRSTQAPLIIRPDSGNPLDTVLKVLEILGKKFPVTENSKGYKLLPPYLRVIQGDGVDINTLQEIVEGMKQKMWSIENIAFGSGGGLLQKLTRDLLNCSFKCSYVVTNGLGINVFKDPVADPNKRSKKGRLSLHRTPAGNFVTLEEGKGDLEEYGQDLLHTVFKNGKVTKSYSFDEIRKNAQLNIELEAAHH

On to `CC1c2ccccc2C(=O)N1Cc1ccc(O)cc1` (centres unmarked) [Compound 31, 2-(4-hydroxybenzyl)-3-methylisoindolin-1-one], for which the 50% effective concentration (EC50) in test [1] (setting [3]) is 0.5 to 5 µM. Further, the “Enzymatic Emax” value in test [1] is reported as “A (A>3)”. Moreover, in test [2] (setting [4]), the EC50 lay within 0.5 to 5 µM and the maximal fold induction is more than 1.5.
Turning to `O=C1c2cccc(Br)c2CN1Cc1ccc(O)cc1` [Compound 21, 4-bromo-2-(4-hydroxybenzyl) isoindolin-1-one], the EC50 in test [1] (setting [3]) fell in the range of 0.5 to 5 µM; in test [2] (setting [4]), 5 to 50 µM. Also, the “Enzymatic Emax” value in test [1] was “B (3≥B>2)”. Moreover, the maximal fold induction in test [2] (setting [4]) lay within 1.2 to 1.5.
For `Cc1noc2cc(CN3C(=O)c4ccccc4C3Cc3c(Cl)cnn3C)ccc12` (centres unmarked) [Compound 594, 3-((4-chloro-1-methyl-1H-pyrazol-5-yl)methyl)-2-((3-methylbenzo[d]isoxazol-6-yl)methyl)isoindolin-1-one], the EC50 in test [1] (setting [5]) was not below 5 µM. The “Enzymatic Emax” value in test [1] is recorded as “B (3≥B>2)”. In test [2] (setting [6]), the concentration giving a half-maximal response (EC50) is less than 0.5 µM and the maximal fold induction is 1.2 to 1.5.
Taken in the same sequence, the figures for `Cn1ncc(Cl)c1CC1c2cc(Cl)cc(F)c2C(=O)N1CC1CC2(CNC(=O)O2)C1` (centres unmarked) [Compound 510, 2-((6-chloro-1-((4-chloro-1-methyl-1H-pyrazol-5-yl)methyl)-4-fluoro-3-oxoisoindolin-2-yl)methyl)-5-oxa-7-azaspiro[3.4]octan-6-one] were less than 0.5 µM, “A (A>3)”, less than 0.5 µM and more than 1.5.
The like results for `Cn1nc(CN2CCC2)c(Cl)c1CC1c2ccccc2C(=O)N1CC1CC2(CNC(=O)O2)C1` (centres unmarked) [Compound 508, 2-((1-((3-(azetidin-1-ylmethyl)-4-chloro-1-methyl-1H-pyrazol-5-yl)methyl)-3-oxoisoindolin-2-yl)methyl)-5-oxa-7-azaspiro[3.4]octan-6-one] were, in that order, less than 0.5 µM, “B (3≥B>2)”, 0.5 to 5 µM and more than 1.5.
Taken in the same sequence, the figures for `Cn1ncc(Cl)c1CC1c2ccccc2C(=O)N1Cc1ccc(O)nc1` (centres unmarked) [Compound 578, 3-[(4-chloro-2-methyl-pyrazol-3-yl)methyl]-2-[(6-hydroxy-3-pyridyl)methyl]isoindolin-1-one] were not below 5 µM, “B (3≥B>2)”, 0.5 to 5 µM and 1.2 to 1.5.
In the case of `O=C1c2ccccc2C(CC2=CCOCC2)N1Cc1ccc2[nH]c(=O)oc2c1` (centres unmarked) [Compound 225, 6-((1-((3,6-dihydro-2H-pyran-4-yl)methyl)-3-oxoisoindolin-2-yl)methyl)benzo[d]oxazol-2(3H)-one], the 50% effective concentration (EC50) in test [1] (setting [3]) and in test [2] (setting [4]) was 0.5 to 5 µM throughout. Besides, the “Enzymatic Emax” value in test [1] was “A (A>3)”. Moreover, in test [2] (setting [4]), the maximal fold induction was more than 1.5.
As to `NC(=O)Nc1ccc(CN2Cc3ccccc3C2=O)cc1` [Compound 293, 1-(4-((1-oxoisoindolin-2-yl)methyl)phenyl)urea], the half-maximal effective concentration (EC50) in test [1] (setting [3]) is less than 0.5 µM; in test [2] (setting [4]) it was 5 to 50 µM. In addition, the “Enzymatic Emax” value in test [1] is given as “C (2≥C)”. Further, the maximal fold induction in test [2] (setting [4]) was more than 1.5.
Take `Cc1ccnc(Br)c1CC1c2ccccc2C(=O)N1C/C=C/c1c[nH]nn1` (centres unmarked) [Compound 380, (E)-2-(3-(1H-1,2,3-triazol-4-yl)allyl)-3-((2-bromo-4-methylpyridin-3-yl)methyl) isoindolin-1-one]: in test [1] (setting [5]), the EC50 is less than 0.5 µM. Besides, the “Enzymatic Emax” value in test [1] is reported as “B (3≥B>2)”. Also, in test [2] (setting [6]), the EC50 was less than 0.5 µM and the maximal fold induction is more than 1.5.
For the compound `O=C1c2ccccc2C(Cc2nc(Br)sc2Cl)N1Cc1ccc2[nH]nnc2c1` (centres unmarked) [Compound 448, 2-((1H-benzo[d][1,2,3]triazol-5-yl)methyl)-3-((2-bromo-5-chlorothiazol-4-yl)methyl)isoindolin-1-one], the EC50 in test [1] (setting [5]) is less than 0.5 µM. The “Enzymatic Emax” value in test [1] is reported as “A (A>3)”. In test [2] (setting [6]), the EC50 lay within 0.5 to 5 µM and the maximal fold induction is more than 1.5.
The like results for `Cn1ncc(Cl)c1CC1c2cc(F)ccc2S(=O)(=O)N1CC1CC2(CNC(=O)O2)C1` (centres unmarked) [Compound 563, 2-((3-((4-chloro-1-methyl-1H-pyrazol-5-yl)methyl)-5-fluoro-1,1-dioxidobenzo[d]isothiazol-2(3H)-yl)methyl)-5-oxa-7-azaspiro[3.4]octan-6-one] were, in that order, 0.5 to 5 µM, “A (A>3)”, less than 0.5 µM and more than 1.5.
Taken in the same sequence, the figures for `CSc1ccc(CN2C(=O)c3ccccc3C2Cc2c(Cl)cnn2C)cc1` (centres unmarked) [Compound 542, 3-((4-chloro-1-methyl-1H-pyrazol-5-yl)methyl)-2-(4-(methylthio)benzyl)isoindolin-1-one] were not below 5 µM, “B (3≥B>2)”, 0.5 to 5 µM and 1.2 to 1.5.
`N#Cc1ncccc1CC1c2ccccc2C(=O)N1Cc1ccc2[nH]c(=O)oc2c1` (centres unmarked) [Compound 201, 3-((3-oxo-2-((2-oxo-2,3-dihydrobenzo[d]oxazol-6-yl)methyl)isoindolin-1-yl)methyl) picolinonitrile]: the EC50 in test [1] (setting [3]) is 0.5 to 5 µM. The “Enzymatic Emax” value in test [1] was “A (A>3)”. Moreover, in test [2] (setting [4]), the 50% effective concentration (EC50) is less than 0.5 µM and the maximal fold induction is more than 1.5.
The like results for `O=C1c2ccccc2C(Cc2ncccc2Br)N1Cc1ccc2[nH]c(=O)oc2c1` (centres unmarked) [Compound 205, 6-((1-((3-bromopyridin-2-yl)methyl)-3-oxoisoindolin-2-yl)methyl)benzo[d]oxazol-2(3H)-one] were, in that order, less than 0.5 µM, “A (A>3)”, less than 0.5 µM and more than 1.5.
Regarding `O=C1c2ccccc2C(Cc2ncccc2Br)N1CC1CCc2[nH]nnc2C1` (centres unmarked) [Compound 332, 3-((3-bromopyridin-2-yl)methyl)-2-((4,5,6,7-tetrahydro-1H-benzo[d][1,2,3]triazol-5-yl)methyl)isoindolin-1-one], in test [1] (setting [5]), the concentration giving a half-maximal response (EC50) fell in the range of 0.5 to 5 µM. In addition, the “Enzymatic Emax” value in test [1] is reported as “A (A>3)”. For the same compound, in test [2] (setting [6]), the EC50 is less than 0.5 µM and the maximal fold induction is more than 1.5.
`Cn1ncc(Cl)c1CC1c2cc(CN3CCOCC3)ccc2C(=O)N1Cc1ccc2[nH]nnc2c1` (centres unmarked) [Compound 325, 2-((1H-benzo[d][1,2,3]triazol-5-yl)methyl)-3-((4-chloro-1-methyl-1H-pyrazol-5-yl)methyl)-5-(morpholinomethyl)isoindolin-1-one]: the EC50 in test [1] (setting [5]) is less than 0.5 µM. The “Enzymatic Emax” value in test [1] is “A (A>3)”. In test [2] (setting [6]), the EC50 is less than 0.5 µM and the maximal fold induction is more than 1.5.
For the compound `Cn1ncc(Cl)c1CC1c2ccccc2C(C)(C)N1Cc1ccc2[nH]nnc2c1` (centres unmarked) [Compound 608, 5-((3-((4-chloro-1-methyl-IH-pyrazol-5-yl)methyl)-1,1-dimethylisoindolin-2-yl)methyl)-1H-benzo[d][1,2,3]triazole], the EC50 in test [1] (setting [5]) was less than 0.5 µM; in test [2] (setting [6]), 0.5 to 5 µM. In test [1], the “Enzymatic Emax” value was “A (A>3)”. Besides, in test [2] (setting [6]), the maximal fold induction was more than 1.5.
Consider `Cc1ccnc(C#N)c1CC1c2cc(C#N)ccc2C(=O)N1Cc1ccc2[nH]nnc2c1` (centres unmarked) [Compound 359, 2-((1H-benzo[d][1,2,3]triazol-5-yl)methyl)-3-((2-cyano-4-methylpyridin-3-yl)methyl)-1-oxoisoindoline-5-carbonitrile], for which, in test [1] (setting [5]), the half-maximal effective concentration (EC50) was less than 0.5 µM. Besides, the “Enzymatic Emax” value in test [1] is on record as “B (3≥B>2)”. Also, in test [2] (setting [6]), the concentration for a half-maximal effect (EC50) lay in the range of 0.5 to 5 µM and the maximal fold induction is more than 1.5.
For `O=C1c2ccccc2C(Cc2ncccc2Br)N1Cc1cc2oc(=O)[nH]c2cc1F` (centres unmarked) [Compound 223, 6-((1-((3-bromopyridin-2-yl)methyl)-3-oxoisoindolin-2-yl)methyl)-5-fluorobenzo[d]oxazol-2(3H)-one], the EC50 in test [1] (setting [3]) is less than 0.5 µM. In test [1], the “Enzymatic Emax” value was “A (A>3)”. In test [2] (setting [4]), the EC50 fell in the range of 0.5 to 5 µM and the maximal fold induction is more than 1.5.
Taken in the same sequence, the figures for `O=C1c2ccccc2C(Cc2ncccc2Br)N1Cc1ccc2[nH]ncc2c1` (centres unmarked) [Compound 240, 2-((1H-indazol-5-yl)methyl)-3-((3-bromopyridin-2-yl)methyl)isoindolin-1-one] were less than 0.5 µM, “B (3≥B>2)”, less than 0.5 µM and 1.2 to 1.5.

(Values after US20260078130A1, “NAMPT MODULATORS, PREPARATIONS, AND USES THEREOF” (SIRONAX LTD., priority 2022, published 2026).)
